From patent US7459450B2, “Neuropeptide receptor modulators” (Schering Corporation, priority 2004, dated 2008)

target: T1, Human NPY Y1 receptors (Homo sapiens, UniProt P25929); assay: NPY Receptor Binding Assay; conditions: not given
T1 construct: expressed in transfected cells; host or cells: CHO cells (membrane protein)
T1 sequence (P25929 1-384): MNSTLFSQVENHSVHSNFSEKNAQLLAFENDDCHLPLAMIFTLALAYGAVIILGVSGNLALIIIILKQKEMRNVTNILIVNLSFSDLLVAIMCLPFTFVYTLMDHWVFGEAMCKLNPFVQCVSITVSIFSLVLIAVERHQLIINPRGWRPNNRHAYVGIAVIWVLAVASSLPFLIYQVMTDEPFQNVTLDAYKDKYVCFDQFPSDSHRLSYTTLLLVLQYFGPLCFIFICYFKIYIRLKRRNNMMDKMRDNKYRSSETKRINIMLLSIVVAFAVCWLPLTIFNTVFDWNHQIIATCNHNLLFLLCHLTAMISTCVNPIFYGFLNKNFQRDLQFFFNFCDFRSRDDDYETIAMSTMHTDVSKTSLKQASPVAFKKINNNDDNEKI

| Ki [µM] | SMILES |
| --- | --- |
| > 10 | O=C(O)C[C@@H]1N/C(=N/c2ccc(CCNc3nc4cc(Cl)c(Cl)cc4s3)cc2)SC1=O [Example 392] |
| > 10 | O=C1S/C(=N\c2ccc(CCNc3nc4ccccc4s3)cc2)N[C@H]1Cc1ccccc1 [Example 394] |
| > 10 | CSCC[C@@H]1N/C(=N/c2ccc(CCNc3nc4ccccc4s3)cc2)SC1=O [Example 395] |
| > 10 | CC(C)C[C@@H]1N/C(=N/c2ccc(CCNc3nc4ccccc4s3)cc2)SC1=O [Example 396] |
| > 10 | CC(C)[C@@H]1N/C(=N/c2ccc(CCNc3nc4ccccc4s3)cc2)SC1=O [Example 397] |
| > 10 | O=C1S/C(=N\c2ccc(CCNc3nc4ccccc4s3)cc2)N2CCC[C@@H]12 [Example 398] |
| > 10 | O=C(O)C[C@@H]1N/C(=N/c2ccc(CCNc3nc4ccccc4s3)cc2)SC1=O [Example 399] |
| > 10 | C[C@@H]1N/C(=N/c2ccc(CCNc3nc4ccccc4s3)cc2)SC1=O [Example 400] |
| > 10 | COc1cccc2sc(NCCc3ccc(/N=C4/N[C@@H](Cc5ccccc5)C(=O)S4)cc3)nc12 [Example 401] |
| > 10 | O=C(O)C[C@@H]1N/C(=N/c2ccc(CCNc3nc4ccc(F)cc4s3)cc2)SC1=O [Example 402] |
| > 10 | C[C@@H]1N/C(=N/c2ccc(CCNc3nc4ccc(F)cc4s3)cc2)SC1=O [Example 403] |
| > 10 | CC(C)C1NC(=Nc2ccccc2CCNc2nc3ccccc3s2)SC1=O (stereo not drawn) [Example 404] |
| > 10 | O=C1S/C(=N/c2cccc(CCNc3nc4ccccc4s3)c2)N[C@H]1Cc1ccccc1 [Example 406] |
| > 10 | CC(C)[C@@H]1N/C(=N\c2cccc(CCNc3nc4ccccc4s3)c2)SC1=O [Example 407] |
| > 10 | O=C(O)C[C@@H]1N/C(=N\c2cccc(CCNc3nc4ccccc4s3)c2)SC1=O [Example 409] |
| > 10 | O=C1S/C(=N/c2ccccc2CCNc2nc3ccccc3s2)N[C@H]1Cc1ccccc1 [Example 410] |
| > 10 | CC(C)C[C@@H]1N/C(=N\c2ccccc2CCNc2nc3ccccc3s2)SC1=O [Example 411] |
| > 10 | O=C(O)C[C@@H]1N/C(=N\c2ccccc2CCNc2nc3ccccc3s2)SC1=O [Example 413] |
| > 10 | CSCC[C@@H]1N/C(=N/c2ccc(CCNc3nc4ccc([N+](=O)[O-])cc4s3)cc2)SC1=O [Example 414] |

The next lines start with the molecule.

| SMILES | Ki [µM] |
| --- | --- |
| O=C1S/C(=N\c2ccc(CCNc3nc4cc(Cl)c(Cl)cc4s3)cc2)N2CCC[C@@H]12 [Example 390] | > 10 |
| O=C1CN/C(=N/c2ccc(CCNc3nc4cc(Cl)c(Cl)cc4s3)cc2)S1 [Example 391] | > 10 |
| C[C@@H]1N/C(=N/c2ccc(CCNc3nc4cc(Cl)c(Cl)cc4s3)cc2)SC1=O [Example 393] | > 10 |
| O=C1S/C(=N/c2ccccc2CCNc2nc3ccccc3s2)N2CCC[C@@H]12 [Example 405] | > 10 |
| O=C1S/C(=N/c2cccc(CCNc3nc4ccccc4s3)c2)N2CCC[C@@H]12 [Example 408] | > 10 |
| O=C1CN/C(=N\c2ccccc2CCNc2nc3ccccc3s2)S1 [Example 412] | > 10 |

same assay, conditions: Procedure D compound, rated A/B/C

| Ki [µM] | SMILES |
| --- | --- |
| 1 to 10 | COC1CN=C(Nc2ccc(CCNc3nc4ccccc4s3)cc2)S1 (stereo not drawn) [compound 61] |

same assay, conditions: Procedure G compounds, rated A/B/C

| Ki [µM] | SMILES |
| --- | --- |
| > 10 | Cc1csc(Nc2ccc(CCNc3nc4ccccc4s3)cc2)n1 [Example 415] |
| > 10 | c1ccc2sc(NCCc3ccc(Nc4nccs4)cc3)nc2c1 [Example 416] |
| > 10 | Cc1ccc(-c2csc(Nc3ccc(CCNc4nc5ccccc5s4)cc3)n2)cc1 [Example 417] |
| > 10 | CNC(=O)c1sc(Nc2ccc(CCNc3nc4ccccc4s3)cc2)nc1C [Example 418] |
| > 10 | c1ccc(-c2ccc(-c3csc(Nc4ccc(CCNc5nc6ccccc6s5)cc4)n3)cc2)cc1 [Example 419] |
| > 10 | Fc1ccc(-c2csc(Nc3ccc(CCNc4nc5ccccc5s4)cc3)n2)cc1 [Example 420] |
| > 10 | c1ccc(-c2nc(Nc3ccc(CCNc4nc5ccccc5s4)cc3)sc2-c2ccccc2)cc1 [Example 421] |
| > 10 | c1ccc2cc(-c3csc(Nc4ccc(CCNc5nc6ccccc6s5)cc4)n3)ccc2c1 [Example 422] |
| > 10 | c1ccc(-c2csc(Nc3ccc(CCNc4nc5ccccc5s4)cc3)n2)cc1 [Example 423] |
| > 10 | c1ccc2sc(NCCc3ccc(Nc4nc(C56C[C@H]7C[C@@H](C5)C[C@@H](C6)C7)cs4)cc3)nc2c1 [Example 424] |
| > 10 | COc1ccccc1-c1csc(Nc2ccc(CCNc3nc4ccccc4s3)cc2)n1 [Example 425] |
| > 10 | COc1ccc(-c2csc(Nc3ccc(CCNc4nc5ccccc5s4)cc3)n2)c(OC)c1 [Example 426] |
| > 10 | CCOC(=O)c1sc(Nc2ccc(CCNc3nc4ccccc4s3)cc2)nc1C [Example 427] |
| > 10 | Cc1nc(Nc2ccc(CCNc3nc4ccccc4s3)cc2)sc1C [Example 428] |
| > 10 | CC(=O)c1sc(Nc2ccc(CCNc3nc4ccccc4s3)cc2)nc1C [Example 429] |
| > 10 | CCc1csc(Nc2ccc(CCNc3nc4ccccc4s3)cc2)n1 [Example 430] |
| > 10 | COC(=O)Cc1csc(Nc2ccc(CCNc3nc4ccccc4s3)cc2)n1 [Example 431] |
| > 10 | CCOC(=O)c1sc(Nc2ccc(CCNc3nc4ccccc4s3)cc2)nc1C(F)(F)F [Example 432] |
| > 10 | CC(C)(C)c1csc(Nc2ccc(CCNc3nc4ccccc4s3)cc2)n1 [Example 433] |
| > 10 | CCOC(=O)CC(C)(C)c1csc(Nc2ccc(CCNc3nc4ccccc4s3)cc2)n1 [Example 434] |
| > 10 | O=C(O)c1csc(Nc2ccc(CCNc3nc4ccccc4s3)cc2)n1 [Example 435] |
| > 10 | COc1ccc(-c2csc(Nc3ccc(CCNc4nc5ccccc5s4)cc3)n2)cc1 [Example 436] |
| > 10 | Cc1nc(Nc2ccc(CCNc3nc4ccccc4s3)cc2)sc1C(=O)N(C)C [Example 437] |

same assay, conditions: Procedure H compounds, rated A/B/C

| Ki [µM] | SMILES |
| --- | --- |
| > 10 | O=C1N=C(Nc2ccc(CCNc3nc4ccccc4s3)cc2)SC1c1ccccc1 (stereo not drawn) [Example 444] |
| > 10 | O=C1N=C(Nc2ccc(CCNc3nc4ccccc4s3)cc2)SC1c1ccccc1O (stereo not drawn) [Example 445] |

More lines, now with the values behind:

| SMILES | Ki [µM] |
| --- | --- |
| O=C1CSC(Nc2ccc(CCNc3nc4ccccc4s3)cc2)=N1 [Example 439] | > 10 |
| CC(O)CC1SC(Nc2ccc(CCNc3nc4ccccc4s3)cc2)=NC1=O (stereo not drawn) [Example 440] | > 10 |
| O=C1N=C(Nc2ccc(CCNc3nc4ccccc4s3)cc2)SC1CCO (stereo not drawn) [Example 441] | > 10 |
| CCCCC1SC(Nc2ccc(CCNc3nc4ccccc4s3)cc2)=NC1=O (stereo not drawn) [Example 442] | > 10 |
| CCC1SC(Nc2ccc(CCNc3nc4ccccc4s3)cc2)=NC1=O (stereo not drawn) [Example 443] | > 10 |
| CCCC1SC(Nc2ccc(CCNc3nc4ccccc4s3)cc2)=NC1=O (stereo not drawn) [Example 446] | > 10 |
| CCCCCC1SC(Nc2ccc(CCNc3nc4ccccc4s3)cc2)=NC1=O (stereo not drawn) [Example 447] | > 10 |

same assay, conditions: Procedure I compounds, column head blank, rated A/B/C

| Ki [µM] | SMILES |
| --- | --- |
| 1 to 10 | c1ccc(C2CCCCC(Nc3ccc(CCNc4nc5ccccc5s4)cc3)=N2)cc1 (stereo not drawn) [Example 448] |
| 1 to 10 | c1ccc(C2CCCC(Nc3ccc(CCNc4nc5ccccc5s4)cc3)=N2)cc1 (stereo not drawn) [Example 449] |
